From patent US8324422B2, “Enhydrazone esters for treating asthma, allergy and inflammation” (Kuwait University, priority 2008, dated 2012)

What was measured:
[1] = tested on: human peripheral blood eosinophils; assay: complement C5a-stimulated degranulation (EPO release) of human eosinophils; format: cell-based; conditions: for IC50: C5a (30 nM) + cytochalasin B, 10 min pre-incubation, 30 min at 37° C., read-out: concentration achieving 50% inhibition of EPO release; for effect on EPO release at high concentration: at the concentrations of 300 nM and above
Experimental: Example 1 involves the testing of the effect of complement C5a-induced degranulation of human blood eosinophils, and IgE-dependent degranulation of mast cells. Human peripheral blood eosinophils were purified to >98% by the immunomagnetic method. Aliquots containing 2.5×10^4 cells were added to each well of a 96-well microplate. The cells were separately pre-incubated for 10 minutes with CEE-1, CEE-2 or the drug solvent (DMSO) and then subsequently stimulated with recombinant human complement C5a (30 nM) in the presence of cytochalasin B (5 μg/mL). The reaction was allowed to proceed for 30 minutes at 37° C. The amount of the granular eosinophil peroxidases (EPO) released into the supernatant (as index of degranulation) was determined by the o-phenylenediamine method. The amount of EPO released was expressed as a percentage of the total cell content.
Cells were incubated with the each of CEE-1 and CEE-2 for 10 minutes before stimulation. Control uninhibited releases were in the range of 20-30% of total cell content. Results are shown as mean±SD, n=4.

[2] = tested on: human peripheral blood eosinophils; assay: viability of eosinophils at concentrations that abolished EPO release; format: cell-based
Text: In untreated cells, C5a induced the release of 20-30% of the total cellular content of EPO.

RBL-2H3 mast cells [3] = assay: antigen induced IgE-mediated degranulation (β-hexoseaminidase release) of mast cells (RBL-2H3); format: cell-based, rat; conditions: anti-DNP IgE sensitized, DNP-BSA 100 ng/mL, 10 min pre-treatment; read-out: concentration achieving 50% inhibition of β-hexoseaminidase release
Experimental: The anti-allergic effect was tested on IgE-dependent mast cell degranulation using the rat basophilic leukemia (RBL-2H3) cell line model. The cells were passively sensitized with 0.5 μg/mL anti-DNP monoclonal IgE antibody for 1 hour, and then washed twice to remove unbound antibody. They were then separately pre-treated with CEE-1, CEE-2 or their solvent (DMSO) for 10 minutes before being stimulated with the specific antigen DNP-BSA (100 ng/mL). After 30 minutes of incubation, the amount of granular β-hexoseaminidase released into the supernatant (index of degranulation) was determined photometrically.
FIG. 3 illustrates the inhibition of antigen induced IgE-mediated degranulation (β-hexoseaminidase release) of mast cells (RBL-2H3) by CEE-1 and CEE-2. Cells were incubated with CEE-1 and CEE-2 for 10 minutes before stimulation. Control uninhibited releases were in the range of 15-26% of total cell content. Results are shown as mean±SD, n=3.

[4] = tested on: mouse peritoneal macrophages; assay: LPS-stimulated release of TNF-α from mouse peritoneal macrophages; format: cell-based; conditions: for IC50: LPS 1 μg/mL for 18 hours, 30 min pre-treatment, ELISA, read-out: concentration that achieved 50% inhibition of TNF-α release
Experimental: The antiinflammatory effect of CEE-1 and CEE-2 was tested on LPS-stimulated release of tumor necrotic factor-α (TNF-α) from mouse peritoneal macrophages. Thioglycollate-induced peritoneal macrophages were obtained by peritoneal lavage of Balb c mice. Macrophages purified by adherence to plastic plate were cultured in a supplemented RPMI medium and pre-treated with CEE-1, CEE-2 or their solvent (DMSO) for 30 minutes before being stimulated with LPS (1 μg/mL) for 18 hours. The amount of TNF-α released into the supernatant was determined by ELISA using commercially available kits.
FIG. 4 illustrates the inhibitory effect of CEE-1 and CEE-2 on the release of TNF-α from LPS-stimulated mouse peritoneal macrophages. Cells were pre-treated with the drugs for 30 minutes before stimulation with LPS (1 μg/mL). The net uninhibited releases were in the range of 130-185 pg/ml. Values are shown as mean±SD, n=3.

[5] = tested on: mouse peritoneal macrophages; assay: viability of macrophages after overnight incubation; format: cell-based
RBL-2H3 mast cells [6] = tested on: RBL-2H3 mast cells

IC50 [1] [nM] | IC50 [4] [nM] | Compound | effect on EPO release at high concentration [1] | viability of the cells [2] | IC50 (RBL-2H3 mast cells [3]) [nM] | effect on TNF-α release at 10 μM [4] | viability of the cells [5] | cellular toxicity (trypan blue exclusion test) (RBL-2H3 mast cells [6])
45 | 80 | CCOC(=O)C1C(=O)C=C(NNc2ccccc2)CC1c1ccccc1 (stereo not shown) [CEE-1, ethyl 4-phenylhydrazinocyclohex-3-en-2-oxo-6-phenyl-1-oate] | completely abolished EPO release | did not significantly affect the viability of the cells | 800 | completely abolished the release | no effect on their viability | no cellular toxicity
94 | 82 | COC(=O)C1C(=O)C=C(NNc2ccccc2)CC1c1ccccc1 (stereo not shown) [CEE-2, methyl 4-phenylhydrazinocyclohex-3-en-2-oxo-6-phenyl-1-oate] | completely abolished EPO release | did not significantly affect the viability of the cells | 1200 | completely abolished the release | no effect on their viability | no cellular toxicity
